Measured values reported in publication PMC3923439, “Anti-inflammatory properties of a novel peptide interleukin 1 receptor antagonist” (Journal of Neuroinflammation, 2014).
Positions of bridges follow the written chain, without caps; N, C: chain ends. Chains are numbered I, II in the order given. No end group written: not given here.

What was measured:
[1] = tested on: HEK-Blue IL-1β cells (IL-1RI / NF-κB); assay: IL-1β-induced NF-κB activation, SEAP reporter; type: cell-based; conditions: 1.2 pM IL-1β, 24 hours, SEAP read at 600 nm, four independent experiments
Description: HEK-Blue IL-1β cells that contained an IL-1β-sensitive reporter (InvivoGen, San Diego, CA, USA) and HEK-Blue IL-6 cells that contained an IL-6-sensitive reporter (InvivoGen) were grown at 37°C with 5% CO2 in Dulbecco’s modified Eagle’s medium (DMEM) supplemented with 5% (vol/vol) fetal calf serum (FCS), 4.5 g/L glucose, 2 mM GlutaMAX medium, 100 U/ml penicillin, 100 μg/ml streptomycin (all obtained from Gibco BRL/Life Technologies, Taastrup, Denmark), 100 μg/ml zeocin, 200 μg/ml hygromycin and 100 μg/ml Normocin (all purchased from InvivoGen).
HEK-Blue IL-1β cells allow the monitoring of the activation of the NF-κB pathway specifically in response to IL-1β. They express a NF-κB-inducible secreted embryonic alkaline phosphatase (SEAP) reporter gene. The binding of IL-1β to its receptor IL-1RI on the surface of HEK-Blue IL-1β cells triggers a signaling cascade that leads to the activation NF-κB and the subsequent production of SEAP. HEK-Blue IL-1β cells were grown as described above. The cells were seeded onto a 96-well plate at a density 3.5 × 10^5 cells/ml. For the NF-κB activation assay, the cells were treated with 1.2 pM IL-1β alone or together with sIL-1RI, IL-1Ra or various concentrations of Ilantide. After 24 hours of incubation at 37°C, 150 μl of the cell supernatants were added to each well of a 96-well plate together with 50 μl of QUANTI-Blue (InvivoGen), incubated at 37°C for 40 minutes and measured in an enzyme-linked immunosorbent assay (ELISA) reader at 600 nm to determine the expression levels of reporter genes activated by NF-κB.

[2] = tested on: neonatal rat pancreatic islets; assay: IL-1β-induced rat islet cell apoptosis (cell death detection ELISA); type: cell-based
Description: Neonatal rat islets were isolated from 3- to 6-day-old outbred Wistar rats (Taconic, Ejby, Denmark) as previously described. Islets were precultured and maintained in RPMI 1640 medium (Gibco/Life Technologies) supplemented with 20 mmol/L HEPES buffer, 0.038% (wt/vol) NaHCO3, 100 U/ml penicillin, 100 µg/ml streptomycin and 10% (vol/vol) newborn calf serum (NCS) at 37°C in humidified atmospheric air. Prior to experimentation, the islets were randomly distributed to 24-well dishes and incubated for 2 hours in RPMI 1640 medium supplemented as described above, but with 0.5% (vol/vol) NCS relevant reagents were added as indicated.
For cell death detection, rat islets were incubated with 150 pg/ml IL-1β (BD Pharmingen, San Diego, CA, USA) alone or in combination with various concentrations of Ana and Ilantide for 24 hours at 37°C in humidified atmospheric air. Rat islet cell death was assessed by cell death detection ELISA (Roche, Lund, Sweden) as previously described. As a surrogate measure of nitric oxide production, Griess reagent (1:1 aqueous mixture of 0.1% naphthylethylenediamine hydrochloride and 1% sulfanilamide + 5% H3PO4) was mixed in a 1:1 ratio with 100 μl of supernatant samples to determine the nitrite content in supernatants from the cell death assays described above.
Figure 7 Effect of Ilantide on interleukin 1β-induced rat islet cell apoptosis. Rat pancreatic islets were preincubated for 30 minutes in the absence or presence of various concentrations of anakinra (A), Ilantide-m (B) or Ilantide-t (C) and then exposed to […] interleukin 1β (IL-1β) for 24 hours. Cytokine-induced apoptosis was determined by cell death detection enzyme-linked immunosorbent assay. Apoptosis rates are presented as fold induction compared with untreated control islets (white bars). The data from four independent experiments are presented as mean ± SEM. *P < 0.05 and **P < 0.01 compared with cultures treated with IL-1β alone (one-way analysis of variance followed by Dunnett’s post hoc test).

[3] = Pharmacokinetics: plasma and CSF concentration by competitive ELISA; type: in vivo; conditions: rat, single s.c. 10 mg/kg, calculated
Description: Biotinylated Ilantide-t (Schafer-N) was administered to adult male Wistar rats subcutaneously (s.c.) at a dose of 10 mg/kg. Twenty minutes, sixty minutes, one hundred forty minutes, five hours and thirty hours after peptide administration, blood samples (approximately 300 μl) were collected from the orbital plexus under fentanyl/droperidol/midazolam anesthesia (0.002%/0.14%/0.014% wt/vol) (Department of Experimental Medicine, University of Copenhagen, Denmark) in ethylenediaminetetraacetic acid–coated tubes (BD, Plymouth, UK), and 50 to 110 U/ml aprotinin (Calbiochem, San Diego, CA, USA) was added immediately to the collected blood. The samples were subsequently centrifuged at 1,500 × g for 15 minutes. Cerebrospinal fluid (CSF) was collected from the cisterna magna 30 minutes after peptide administration as described previously. Plasma and CSF samples were stored at -80°C.
The concentrations of Ilantide-t in plasma and CSF samples were measured by performing a competitive ELISA on amino 96-well plates (Nunc). […] Color development was terminated by the addition of 2 M H2SO4 (100 μl/well), and absorbance was read at 450 nm on a Wallac Victor 1420 multilabel counter (PerkinElmer, Hvidovre, Denmark). Peptide concentrations in the samples were determined using a standard curve. […]

Substance	Inhibition of NF-κB activation induced by IL-1β [1]	Reduction of IL-1-induced apoptosis relative to the maximal effect of Ana ([2]; Ilantide-t in high molar excess) [×]	Maximal inhibition of IL-1β-induced apoptosis ([2]; rat islets, 30 minutes preincubation, 8.68 nM (150 pg/ml) IL-1β, 24 hours, four independent experiments) [%]	Plasma half-life [3]
I: SGRKSSKMQAKK-NH2 / II: SGRKSSKMQAK / III: SGRKSSKMQA / IV: SGRKSSKMQA (amide I:11-IV:C, I:12-II:C, II:11-III:C; C-terminus assumed) [Ilantide-t]	dose-dependently inhibited	1.5	93	approximately 2 hours
IL-1Ra: recombinant interleukin 1 receptor antagonist purchased from R&D Systems	dose-dependently inhibited			
